Patent publication US20120022107A1, “2-(PIPERIDIN-1-YL)-4-AZOLYL-THIAZOLE-5-CARBOXYLIC ACID DERIVATIVES AGAINST BACTERIAL INFECTIONS” (ASTRAZENECA AB, priority 2008, published 2012)
Converted amounts (≈) assume the structure as drawn.

What was measured:
Msmeg = Msmeg (Mycolicibacterium smegmatis, UniProt A0QNE0); test: Msmeg IC50; format: biochemical
M. tuberculosis = test: MIC testing: Microplate Alamar Blue Assay; format: cell-based, Mycobacterium tuberculosis; details: Mycobacterium tuberculosis, lowest concentration preventing color change from blue to pink, read-out: Mtu MIC
Hinf = Hinf MIC; format: cell-based, Haemophilus influenzae; details: Haemophilus influenzae; read-out: Hinf_MIC
Sau = Sau MIC; format: cell-based, Staphylococcus aureus; details: Staphylococcus aureus; read-out: Sau_MIC
Spn = Spn MIC; format: cell-based, Streptococcus pneumoniae; details: Streptococcus pneumoniae; read-out: Spn_MIC

Chain of Msmeg (A0QNE0 whole entry): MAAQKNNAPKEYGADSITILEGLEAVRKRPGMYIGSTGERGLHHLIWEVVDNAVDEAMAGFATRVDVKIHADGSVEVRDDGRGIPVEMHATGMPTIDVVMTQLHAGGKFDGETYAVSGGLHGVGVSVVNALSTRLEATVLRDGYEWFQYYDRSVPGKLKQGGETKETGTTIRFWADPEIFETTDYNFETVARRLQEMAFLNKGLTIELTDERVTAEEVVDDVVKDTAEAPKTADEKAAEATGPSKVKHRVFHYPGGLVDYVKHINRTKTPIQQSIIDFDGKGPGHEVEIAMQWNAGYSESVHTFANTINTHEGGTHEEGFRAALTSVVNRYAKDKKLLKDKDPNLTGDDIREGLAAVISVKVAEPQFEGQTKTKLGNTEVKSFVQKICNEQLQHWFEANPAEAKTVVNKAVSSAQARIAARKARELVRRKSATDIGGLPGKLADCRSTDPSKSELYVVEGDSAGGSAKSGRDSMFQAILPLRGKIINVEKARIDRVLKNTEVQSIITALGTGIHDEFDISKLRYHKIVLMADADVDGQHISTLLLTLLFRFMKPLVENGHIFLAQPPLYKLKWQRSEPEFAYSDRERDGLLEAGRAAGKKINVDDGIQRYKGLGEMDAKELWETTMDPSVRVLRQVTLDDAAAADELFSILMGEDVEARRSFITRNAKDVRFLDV

Structure (SMILES) | IC50 (Msmeg) [nM] | MIC (M. tuberculosis) [µg/mL] | MIC (Hinf) [µg/mL] | MIC (Sau) [µg/mL] | MIC (Spn) [µg/mL]
COCCn1ncnc1-c1nc(N2CC[C@@H](NC(=O)c3[nH]c(C)c(Cl)c3Br)[C@@H](OC)C2)sc1C(=O)O [Example 19, 2-((3S,4R)-4-(3-bromo-4-chloro-5-methyl-1H-pyrrole-2-carboxamido)-3-methoxypiperidin-1-yl)-4-(1-(2-methoxyethyl)-1H-1,2,4-triazol-5-yl) thiazole-5-carboxylic acid] | < 2.5 | 0.03 (≈ 0.0498 µM) | 0.25 (≈ 0.415 µM) | 0.125 (≈ 0.207 µM) | 0.125 (≈ 0.207 µM)
COCCn1ncnc1-c1nc(N2CC[C@@H](NC(=O)c3[nH]c(C)c(Cl)c3Br)[C@@H](F)C2)sc1C(=O)O [Example 20, 2-((3S,4R)-4-(3-bromo-4-chloro-5-methyl-1H-pyrrole-2-carboxamido)-3-fluoropiperidin-1-yl)-4-(1-(2-methoxyethyl)-1H-1,2,4-triazol-5-yl) thiazole-5-carboxylic acid] | 4 | 0.125 (≈ 0.212 µM) | 0.125 (≈ 0.212 µM) | 0.125 (≈ 0.212 µM) | 0.125 (≈ 0.212 µM)
